According to PMC3691235, “Discovery of a Novel Dual Fungal CYP51/Human 5-Lipoxygenase Inhibitor: Implications for Anti-Fungal Therapy” (PLoS ONE, 2013):

Assays:
Assay type in all cases: biochemical
[1] = biological target: T1, human prostate epithelial 15-lipoxygenase-2 (15-LOX-2) (Homo sapiens, UniProt O15296); experiment: Lipoxygenase UV-based inhibitor assay, 15-LOX-2; details: 30 µM AA, pH 7.5
T1 construct: His6 (N); made in house
T1 sequence (O15296 1-676): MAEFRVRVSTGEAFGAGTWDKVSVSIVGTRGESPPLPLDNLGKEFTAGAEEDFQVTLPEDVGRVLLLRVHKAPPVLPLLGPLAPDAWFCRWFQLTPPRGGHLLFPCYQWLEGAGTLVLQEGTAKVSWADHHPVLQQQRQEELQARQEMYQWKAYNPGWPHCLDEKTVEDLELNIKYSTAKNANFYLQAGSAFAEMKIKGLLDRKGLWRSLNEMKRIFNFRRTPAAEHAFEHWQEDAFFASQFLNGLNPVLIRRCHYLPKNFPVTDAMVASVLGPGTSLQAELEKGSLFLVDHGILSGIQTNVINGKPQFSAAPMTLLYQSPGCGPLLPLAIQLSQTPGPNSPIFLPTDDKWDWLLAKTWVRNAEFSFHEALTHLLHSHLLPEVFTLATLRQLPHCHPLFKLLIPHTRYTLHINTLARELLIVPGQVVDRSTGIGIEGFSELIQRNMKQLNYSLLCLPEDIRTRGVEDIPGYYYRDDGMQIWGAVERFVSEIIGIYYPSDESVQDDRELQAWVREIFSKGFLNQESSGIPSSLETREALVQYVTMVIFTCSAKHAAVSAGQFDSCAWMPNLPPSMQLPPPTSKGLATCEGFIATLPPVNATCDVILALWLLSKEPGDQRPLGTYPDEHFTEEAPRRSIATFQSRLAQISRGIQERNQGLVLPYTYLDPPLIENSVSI
Method: (§1) Human leukocyte 5-lipoxygenase was expressed as a non-tagged protein and used as a crude ammonium sulfate protein fraction, as published previously.
(§2) Inhibitor potencies were evaluated through use of the standard UV-based inhibitor assay. The initial rates were determined by following the formation of the conjugated diene product at 234 nm (ε = 25,000 M^−1 cm^−1) with a Perkin-Elmer Lambda 40 UV/Vis spectrophotometer at one substrate concentration and varying inhibitor concentrations. All reactions were 2 mL in volume and constantly stirred using a magnetic stir bar at room temperature (23°C), with the enzyme specific buffer conditions outlined in Table 1. The substrate used for the various isozymes was arachidonic acid (AA) for 5-LOX, 12-LOX, and 15-LOX-2 and linoleic acid (LA) for 15-LOX-1, where concentrations were quantitatively determined by allowing the enzymatic reaction to go to completion. IC50 values were obtained by determining the initial rate at various inhibitor concentrations and plotting them against inhibitor concentration, followed by a hyperbolic saturation curve fit. The data used for the saturation curves were performed in duplicate or triplicate, depending on the quality of the data. […] Inhibitors were stored at −20°C in DMSO. […] The solvent isotope effect of the inhibitor IC50 was investigated utilizing the same conditions and methods as stated above. The pH of the buffered D2O was determined as reported previously.

[2] = biological target: T2, Human reticulocyte 15-lipoxygenase-1 (15-LOX-1) (Homo sapiens, UniProt P16050); experiment: Lipoxygenase UV-based inhibitor assay, 15-LOX-1; details: 10 µM LA, pH 7.5
T2 construct: His6 (N); made in house
T2 sequence (P16050 1-662): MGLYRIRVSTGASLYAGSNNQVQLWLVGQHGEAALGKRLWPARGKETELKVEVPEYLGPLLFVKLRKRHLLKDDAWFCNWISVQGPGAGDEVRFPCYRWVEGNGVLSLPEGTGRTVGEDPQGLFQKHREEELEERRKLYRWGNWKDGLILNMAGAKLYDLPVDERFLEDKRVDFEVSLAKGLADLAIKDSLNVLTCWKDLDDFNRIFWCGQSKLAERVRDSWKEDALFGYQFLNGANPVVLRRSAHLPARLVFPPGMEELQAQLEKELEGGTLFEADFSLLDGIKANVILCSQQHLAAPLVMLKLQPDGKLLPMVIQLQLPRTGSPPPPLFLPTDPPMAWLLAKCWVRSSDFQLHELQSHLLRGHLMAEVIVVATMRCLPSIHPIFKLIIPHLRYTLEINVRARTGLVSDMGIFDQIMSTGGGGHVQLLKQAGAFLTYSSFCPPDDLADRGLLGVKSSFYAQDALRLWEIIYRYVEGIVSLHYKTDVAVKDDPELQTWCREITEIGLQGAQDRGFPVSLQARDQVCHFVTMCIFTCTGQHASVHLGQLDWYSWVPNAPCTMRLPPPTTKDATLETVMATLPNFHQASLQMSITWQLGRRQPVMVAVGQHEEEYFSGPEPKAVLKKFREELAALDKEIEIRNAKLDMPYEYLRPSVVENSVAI
Method: as §1, §2

[3] = biological target: T3, human platelet 12-lipoxygenase (12-LOX) (Homo sapiens, UniProt P18054); experiment: Lipoxygenase UV-based inhibitor assay, 12-LOX; details: 10 µM AA, pH 8.0
T3 construct: His6 (N); made in house
T3 sequence (P18054 1-663): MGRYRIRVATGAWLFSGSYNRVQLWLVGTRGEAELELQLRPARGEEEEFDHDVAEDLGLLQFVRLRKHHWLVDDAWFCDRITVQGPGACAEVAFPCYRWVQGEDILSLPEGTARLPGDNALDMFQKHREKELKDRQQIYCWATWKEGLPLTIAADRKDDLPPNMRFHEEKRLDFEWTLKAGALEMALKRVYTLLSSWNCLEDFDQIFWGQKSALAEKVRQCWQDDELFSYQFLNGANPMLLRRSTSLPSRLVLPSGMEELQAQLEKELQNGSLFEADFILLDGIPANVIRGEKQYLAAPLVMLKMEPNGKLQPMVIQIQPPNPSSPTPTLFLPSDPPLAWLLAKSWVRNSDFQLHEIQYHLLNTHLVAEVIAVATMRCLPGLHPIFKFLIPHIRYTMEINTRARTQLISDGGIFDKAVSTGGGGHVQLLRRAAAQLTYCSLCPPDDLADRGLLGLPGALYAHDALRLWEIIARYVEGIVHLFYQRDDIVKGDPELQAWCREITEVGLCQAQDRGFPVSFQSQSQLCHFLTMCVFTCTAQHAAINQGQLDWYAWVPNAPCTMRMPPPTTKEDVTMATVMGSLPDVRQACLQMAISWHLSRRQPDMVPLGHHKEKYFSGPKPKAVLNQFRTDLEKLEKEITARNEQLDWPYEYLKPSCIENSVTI
Method: as §1, §2

SMILES: CC(C)(C)OC(=O)N1CCN(c2ccc(NCc3ccc(-c4ccc(C#N)cc4)o3)cc2)CC1 [Compound 1]
- IC50 [1]: > 150 µM
- IC50 [2]: > 150 µM
- IC50 [3]: > 150 µM

SMILES: CC(=O)N1CCN(c2ccc(NCc3ccc(-c4cccc(Cl)c4)o3)cc2)CC1 [Compound 13]
- IC50 [1]: > 50 µM
- IC50 [2]: > 50 µM
- IC50 [3]: > 50 µM

SMILES: N#Cc1ccc(-c2ccc(CNc3ccc(N4CCCCC4)cc3)o2)cc1 [Compound 14]
- IC50 [1]: 10 µM
- IC50 [2]: > 25 µM
- IC50 [3]: > 150 µM

SMILES: Cc1cc(C2CCCCC2)n(O)c(=O)c1 [ciclopirox, reference compound]
- IC50 [2]: > 100 µM
- IC50 [3]: > 100 µM

SMILES: CC(=O)N1CCN(c2ccc(NCC3COC(Cn4ccnc4)(c4ccc(Cl)cc4Cl)O3)cc2)CC1 (centres unmarked) [ketaminazole (16), ketaminazole]
- IC50 [1]: > 150 µM
- IC50 [2]: > 150 µM
- IC50 [3]: > 150 µM

SMILES: CC(=O)N1CCN(c2ccc(OCC3COC(Cn4ccnc4)(c4ccc(Cl)cc4Cl)O3)cc2)CC1 (centres unmarked) [ketoconazole, reference compound]
- IC50 [1]: > 150 µM
- IC50 [2]: > 50 µM
- IC50 [3]: > 150 µM

SMILES: CC[C@](O)(c1nnc(NCc2ccc3c(-c4ccc(F)cc4)cc(=O)oc3c2)o1)C(F)(F)F [setileuton, reference compound]
- IC50 [1]: > 150 µM
- IC50 [2]: > 150 µM
- IC50 [3]: > 150 µM
